# Measured values taken from paper PMC7486443, “Generation of Phenothiazine with Potent Anti-TLK1 Activity for Prostate Cancer Therapy” (iScience, 2020).
# Legend:
# Assay in all cases: biochemical
# Design in all cases: DiscoverX KINOMEscan scanMAX competition binding panel, single concentration, percent of control; remaining binding: dose or concentration left out as unconfirmed
# Conditions in all cases: KINOMEscan binding, percent of control; read-out: Table S4_SCANMAX REPORT - related to Fig. 1 / Percent Control
# CDC2L2 = biological target: T1, CDC2L2 (Homo sapiens, UniProt Q9UQ88)
# T1 construct: gene CDK11A
# PIK3CG = PIK3CG (Homo sapiens, UniProt P48736)
# PIK3CG, sequence (P48736 whole entry): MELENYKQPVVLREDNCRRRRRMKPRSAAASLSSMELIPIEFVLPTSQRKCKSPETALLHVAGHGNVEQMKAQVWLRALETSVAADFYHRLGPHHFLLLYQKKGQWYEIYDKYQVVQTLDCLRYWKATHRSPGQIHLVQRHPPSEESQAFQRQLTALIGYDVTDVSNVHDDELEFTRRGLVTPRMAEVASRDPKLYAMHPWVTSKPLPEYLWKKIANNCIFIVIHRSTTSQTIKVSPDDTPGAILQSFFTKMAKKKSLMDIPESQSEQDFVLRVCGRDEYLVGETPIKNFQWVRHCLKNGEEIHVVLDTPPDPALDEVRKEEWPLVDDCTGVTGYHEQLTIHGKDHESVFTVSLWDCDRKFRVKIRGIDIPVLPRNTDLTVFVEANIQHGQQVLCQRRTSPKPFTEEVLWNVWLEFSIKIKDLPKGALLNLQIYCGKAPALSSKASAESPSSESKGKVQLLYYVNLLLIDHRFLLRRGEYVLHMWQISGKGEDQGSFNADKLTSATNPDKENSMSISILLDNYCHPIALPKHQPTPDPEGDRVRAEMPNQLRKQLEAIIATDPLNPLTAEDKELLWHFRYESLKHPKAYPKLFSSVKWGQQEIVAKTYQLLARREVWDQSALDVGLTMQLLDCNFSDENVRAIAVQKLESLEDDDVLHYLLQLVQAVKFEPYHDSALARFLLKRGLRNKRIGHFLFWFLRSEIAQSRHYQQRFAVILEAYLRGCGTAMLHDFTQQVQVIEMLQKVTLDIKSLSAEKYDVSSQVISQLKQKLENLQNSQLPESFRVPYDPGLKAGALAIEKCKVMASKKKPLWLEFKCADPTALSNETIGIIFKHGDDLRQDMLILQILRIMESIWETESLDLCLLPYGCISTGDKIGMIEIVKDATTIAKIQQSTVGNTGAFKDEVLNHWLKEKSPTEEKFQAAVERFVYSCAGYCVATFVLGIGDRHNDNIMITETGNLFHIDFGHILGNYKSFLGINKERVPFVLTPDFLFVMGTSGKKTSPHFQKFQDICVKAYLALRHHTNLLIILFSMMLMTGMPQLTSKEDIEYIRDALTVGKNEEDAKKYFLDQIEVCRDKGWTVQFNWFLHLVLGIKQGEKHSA
# PIK3CA(H1047L) = PIK3CA(H1047L) (Homo sapiens, UniProt P42336, H1047L)
# PIK3CA(H1047L), sequence (P42336 whole entry H1047L): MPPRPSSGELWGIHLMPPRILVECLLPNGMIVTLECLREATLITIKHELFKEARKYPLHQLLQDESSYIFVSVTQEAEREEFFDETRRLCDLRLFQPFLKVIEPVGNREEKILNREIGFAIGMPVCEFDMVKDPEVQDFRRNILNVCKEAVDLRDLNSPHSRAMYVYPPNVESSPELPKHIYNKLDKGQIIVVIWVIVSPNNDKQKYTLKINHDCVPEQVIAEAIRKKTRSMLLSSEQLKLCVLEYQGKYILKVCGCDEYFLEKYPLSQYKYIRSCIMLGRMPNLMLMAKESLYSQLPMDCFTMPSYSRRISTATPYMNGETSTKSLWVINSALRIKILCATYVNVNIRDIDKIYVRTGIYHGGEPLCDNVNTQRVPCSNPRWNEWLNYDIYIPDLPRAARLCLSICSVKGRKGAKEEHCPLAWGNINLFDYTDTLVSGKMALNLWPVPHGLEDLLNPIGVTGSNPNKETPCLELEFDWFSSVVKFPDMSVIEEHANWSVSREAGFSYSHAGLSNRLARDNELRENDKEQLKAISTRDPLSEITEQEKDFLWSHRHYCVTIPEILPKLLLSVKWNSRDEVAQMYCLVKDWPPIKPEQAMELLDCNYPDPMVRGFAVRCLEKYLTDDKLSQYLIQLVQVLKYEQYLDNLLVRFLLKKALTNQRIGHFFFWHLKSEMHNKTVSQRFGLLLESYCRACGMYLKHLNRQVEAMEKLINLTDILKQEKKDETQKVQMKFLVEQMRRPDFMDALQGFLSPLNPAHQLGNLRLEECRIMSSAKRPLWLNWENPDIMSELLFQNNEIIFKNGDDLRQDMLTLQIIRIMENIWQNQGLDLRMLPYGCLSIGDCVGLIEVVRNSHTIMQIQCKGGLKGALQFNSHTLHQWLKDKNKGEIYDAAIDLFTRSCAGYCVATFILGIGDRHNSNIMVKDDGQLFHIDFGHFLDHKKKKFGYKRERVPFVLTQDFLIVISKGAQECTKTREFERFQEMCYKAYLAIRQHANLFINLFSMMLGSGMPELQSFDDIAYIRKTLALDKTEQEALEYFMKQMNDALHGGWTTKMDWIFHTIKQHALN
# KIT(D816V) = KIT(D816V) (Homo sapiens, UniProt P10721, D816V)
# FYN = FYN (Homo sapiens, UniProt P06241)
# PAK1 = PAK1 (Homo sapiens, UniProt Q13153)
# DYRK2 = DYRK2 (Homo sapiens, UniProt Q92630)
# [1] = biological target: T2, RSK1(Kin.Dom.1-N-terminal) (Homo sapiens, UniProt Q15418)
# T2 construct: gene RPS6KA1; Kin.Dom.1-N-terminal
# BLK = BLK (Homo sapiens, UniProt P51451)
# BLK, sequence (P51451 whole entry): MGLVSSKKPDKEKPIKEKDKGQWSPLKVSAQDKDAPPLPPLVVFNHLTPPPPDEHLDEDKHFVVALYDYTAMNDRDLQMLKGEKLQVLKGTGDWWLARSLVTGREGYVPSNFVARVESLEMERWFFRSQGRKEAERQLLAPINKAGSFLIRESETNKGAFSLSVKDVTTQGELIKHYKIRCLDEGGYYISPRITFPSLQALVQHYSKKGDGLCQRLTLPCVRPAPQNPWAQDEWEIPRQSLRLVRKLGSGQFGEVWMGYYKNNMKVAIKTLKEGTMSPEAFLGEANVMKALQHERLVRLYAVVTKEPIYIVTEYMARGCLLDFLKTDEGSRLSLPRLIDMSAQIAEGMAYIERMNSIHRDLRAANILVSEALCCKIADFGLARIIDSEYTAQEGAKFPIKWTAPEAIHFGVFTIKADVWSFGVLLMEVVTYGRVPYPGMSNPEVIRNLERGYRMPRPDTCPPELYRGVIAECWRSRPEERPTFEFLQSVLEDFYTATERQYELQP
# KIT(A829P) = KIT(A829P) (Homo sapiens, UniProt P10721, A829P)
# p38-gamma = biological target: T3, p38-gamma (Homo sapiens, UniProt P53778)
# T3 construct: gene MAPK12
# CLK4 = CLK4 (Homo sapiens, UniProt Q9HAZ1)
# CLK4, sequence (Q9HAZ1 whole entry): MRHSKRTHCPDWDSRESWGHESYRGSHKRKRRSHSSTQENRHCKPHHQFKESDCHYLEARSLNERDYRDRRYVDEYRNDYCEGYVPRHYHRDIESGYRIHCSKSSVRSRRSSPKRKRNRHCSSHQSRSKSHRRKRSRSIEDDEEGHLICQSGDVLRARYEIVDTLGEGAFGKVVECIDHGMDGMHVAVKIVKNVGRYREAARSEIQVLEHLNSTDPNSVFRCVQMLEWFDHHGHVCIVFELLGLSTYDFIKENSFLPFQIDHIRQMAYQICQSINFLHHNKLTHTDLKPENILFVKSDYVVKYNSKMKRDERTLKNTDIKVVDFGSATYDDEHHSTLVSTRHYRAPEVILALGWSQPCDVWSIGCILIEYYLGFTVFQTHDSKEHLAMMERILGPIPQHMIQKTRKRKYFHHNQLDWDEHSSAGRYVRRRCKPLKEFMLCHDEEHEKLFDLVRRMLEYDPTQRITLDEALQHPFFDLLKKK
# TRKA = biological target: T4, TRKA (Homo sapiens, UniProt P04629)
# T4 construct: gene NTRK1
# LZK = biological target: T5, LZK (Homo sapiens, UniProt O43283)
# T5 construct: gene MAP3K13
# T5 sequence (O43283 whole entry): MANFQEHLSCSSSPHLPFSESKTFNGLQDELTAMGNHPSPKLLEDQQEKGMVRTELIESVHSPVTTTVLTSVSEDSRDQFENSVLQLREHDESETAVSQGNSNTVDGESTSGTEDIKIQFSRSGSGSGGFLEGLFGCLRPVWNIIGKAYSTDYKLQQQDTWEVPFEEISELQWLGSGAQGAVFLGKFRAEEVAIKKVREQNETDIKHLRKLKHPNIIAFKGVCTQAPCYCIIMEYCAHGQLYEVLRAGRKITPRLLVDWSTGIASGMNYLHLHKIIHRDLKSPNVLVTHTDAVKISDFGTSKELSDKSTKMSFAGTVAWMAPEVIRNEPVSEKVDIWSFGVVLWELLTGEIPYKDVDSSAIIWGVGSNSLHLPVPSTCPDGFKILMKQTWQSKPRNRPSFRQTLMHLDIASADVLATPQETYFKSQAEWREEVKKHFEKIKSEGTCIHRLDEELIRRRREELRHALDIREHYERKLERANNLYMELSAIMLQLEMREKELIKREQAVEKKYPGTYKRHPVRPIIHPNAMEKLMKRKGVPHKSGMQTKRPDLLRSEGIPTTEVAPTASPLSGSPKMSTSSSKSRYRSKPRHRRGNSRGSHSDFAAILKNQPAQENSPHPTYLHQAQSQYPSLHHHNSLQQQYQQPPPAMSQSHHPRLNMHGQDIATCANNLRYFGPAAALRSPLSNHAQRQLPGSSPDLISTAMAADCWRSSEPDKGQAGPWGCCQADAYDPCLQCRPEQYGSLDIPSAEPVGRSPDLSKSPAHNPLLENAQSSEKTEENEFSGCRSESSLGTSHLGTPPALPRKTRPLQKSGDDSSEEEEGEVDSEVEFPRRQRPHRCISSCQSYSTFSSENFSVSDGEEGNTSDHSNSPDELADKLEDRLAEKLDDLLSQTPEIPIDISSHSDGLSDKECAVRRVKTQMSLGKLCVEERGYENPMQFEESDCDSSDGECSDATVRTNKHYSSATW
# PIK3CA(M1043I) = PIK3CA(M1043I) (Homo sapiens, UniProt P42336, M1043I)
# PIK3CA(M1043I), sequence (P42336 whole entry M1043I): as the sequence (P42336 whole entry H1047L) above, with M1043I, L1047H counted along it
# CASK = CASK (Homo sapiens, UniProt O14936)
# CASK, sequence (O14936 whole entry): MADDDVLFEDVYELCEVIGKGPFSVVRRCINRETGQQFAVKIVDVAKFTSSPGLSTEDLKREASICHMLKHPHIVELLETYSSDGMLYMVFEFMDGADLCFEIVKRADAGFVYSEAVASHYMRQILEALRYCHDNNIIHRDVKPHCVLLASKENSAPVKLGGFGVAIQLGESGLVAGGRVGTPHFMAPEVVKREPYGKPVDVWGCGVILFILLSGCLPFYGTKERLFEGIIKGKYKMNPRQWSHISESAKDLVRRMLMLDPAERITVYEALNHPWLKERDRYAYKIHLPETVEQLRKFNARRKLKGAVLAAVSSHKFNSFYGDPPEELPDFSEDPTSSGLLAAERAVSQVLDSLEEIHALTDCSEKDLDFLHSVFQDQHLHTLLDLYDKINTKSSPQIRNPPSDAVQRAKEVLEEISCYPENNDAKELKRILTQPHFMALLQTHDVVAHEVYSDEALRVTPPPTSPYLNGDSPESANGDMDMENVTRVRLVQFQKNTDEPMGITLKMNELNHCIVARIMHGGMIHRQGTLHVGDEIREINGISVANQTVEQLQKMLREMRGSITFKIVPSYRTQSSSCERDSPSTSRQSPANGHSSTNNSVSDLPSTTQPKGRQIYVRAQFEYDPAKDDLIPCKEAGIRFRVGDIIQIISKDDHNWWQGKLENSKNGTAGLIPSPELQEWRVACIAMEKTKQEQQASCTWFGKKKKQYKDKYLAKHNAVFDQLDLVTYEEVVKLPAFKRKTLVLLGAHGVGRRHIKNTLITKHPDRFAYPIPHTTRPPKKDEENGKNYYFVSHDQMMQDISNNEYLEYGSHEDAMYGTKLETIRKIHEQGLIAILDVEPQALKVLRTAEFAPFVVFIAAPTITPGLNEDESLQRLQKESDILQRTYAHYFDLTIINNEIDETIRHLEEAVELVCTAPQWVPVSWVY
# INSR = INSR (Homo sapiens, UniProt P06213)
# INSRR = INSRR (Homo sapiens, UniProt P14616)
structure (smiles),measurement,setting,value
c1ccc2c(c1)Sc1ccccc1N2CCN1CCOCC1 [J54],remaining binding,CDC2L2,100%
same,remaining binding,PIK3CG,99%
same,remaining binding,PIK3CA(H1047L),100%
same,remaining binding,KIT(D816V),96%
same,remaining binding,FYN,100%
same,remaining binding,PAK1,93%
same,remaining binding,DYRK2,83%
same,remaining binding,[1],100%
same,remaining binding,BLK,60%
same,remaining binding,KIT(A829P),94%
same,remaining binding,p38-gamma,58%
same,remaining binding,CLK4,100%
same,remaining binding,TRKA,82%
same,remaining binding,LZK,92%
same,remaining binding,PIK3CA(M1043I),98%
same,remaining binding,CASK,100%
same,remaining binding,INSR,68%
same,remaining binding,INSRR,85%
